The species named for series [1] is Homo sapiens. As to the kind of experiment: Toxicity in healthy human assessed as death at 750 mg. It is filed as organism-based. As to conditions: in vivo.
Series [2] can be described thus: Tmax in healthy human plasma at 750 mg by HPLC-tandem mass spectrometry method. It is filed as ADME, organism-based.
Series [3] in a line: AUC (infinity) in healthy human plasma at 750 mg coadministered with 20 ml of antacid by HPLC-tandem mass spectrometry method. The series is classed as ADME, organism-based. Also on record: dose 750 mg, time infinity.
Series [4] is described as follows: Half life in healthy human plasma at 750 mg by HPLC-tandem mass spectrometry method. The series is classed as ADME, organism-based.
Series [5] can be described thus: Cmax in healthy human plasma at 750 mg after 24 hrs by HPLC-tandem mass spectrometry method. The series is classed as ADME, organism-based. Also noted: dose 750 mg.
Series [6] is described as follows: Cmax in healthy human plasma at 750 mg after 24 hrs coadministered with 20 ml of antacid by HPLC-tandem mass spectrometry method. It is filed as ADME, organism-based. Also noted: dose 750 mg.
Series [7] concerns Homo sapiens. Briefly: Plasma concentration in healthy human plasma at 750 mg coadministered with 20 ml of antacid by HPLC-tandem mass spectrometry method. The conditions noted are these: in vivo. It is filed as ADME, organism-based.
In series [8] the test system is Homo sapiens. As to the kind of experiment: Toxicity in healthy human assessed as gastrointestinal tract related toxicity at 750 mg coadministered with 20 ml of antacid. It is filed as organism-based. The conditions noted are these: in vivo.
For series [9], the species on record is Homo sapiens. As to the kind of experiment: Toxicity in healthy human assessed as serious adverse events at 750 mg. It is filed as organism-based. As to conditions: in vivo.
Series [10] in a line: Half life in healthy human plasma at 750 mg coadministered with 20 ml of antacid by HPLC-tandem mass spectrometry method. It is filed as ADME, organism-based.
The test system of series [11] is Homo sapiens. As to the kind of experiment: Toxicity in healthy human assessed as death at 750 mg coadministered with 20 ml of antacid. The series is classed as organism-based. As to conditions: in vivo.
A short description of series [12]: Tmax in healthy human plasma at 750 mg coadministered with 20 ml of antacid by HPLC-tandem mass spectrometry method. It is filed as ADME, organism-based.
For series [13], the system named is Homo sapiens. As to the kind of experiment: Toxicity in healthy human assessed as serious adverse events at 750 mg coadministered with 20 ml of antacid. The conditions noted are these: in vivo. It is filed as organism-based.
The species entered for series [14] is Homo sapiens. As to the kind of experiment: Plasma concentration in healthy human plasma at 750 mg by HPLC-tandem mass spectrometry method. The series is classed as ADME, organism-based. As to conditions: in vivo.
Series [15] is described as follows: AUC (infinity) in healthy human plasma at 750 mg by HPLC-tandem mass spectrometry method. The series is classed as ADME, organism-based. Also noted: dose 750 mg, time infinity.
The species named for series [16] is Homo sapiens. As to the kind of experiment: Toxicity in healthy human assessed as gastrointestinal tract related toxicity at 750 mg. It is filed as organism-based. The conditions noted are these: in vivo.

Consider `CCc1nn(CCO)c(CC)c1Oc1cc(C#N)cc(C#N)c1` [LERSIVIRINE], for which the Activity entry in the series filed under Homo sapiens [1] is “Non-toxic”; in the series with Homo sapiens [8], “Toxic”; in the series listed under Homo sapiens [9] it was “Non-toxic”; in the series with Homo sapiens [11], “Non-toxic”; with Homo sapiens [13], “Non-toxic”; in the series filed under Homo sapiens [16], “Toxic”. Also, the Tmax in series [2] was determined as 5 h; in series [12] it was 2 h. The AUC(0-inf) in series [3] turned out to be 11200 ng·h/mL; in series [15] it was 11000 ng·h/mL. Further, the half-life in series [4] is 415 min; in [10], 373 min. Further, the highest concentration (Cmax) was determined as 1520 ng/mL in [5] and 1450 ng/mL in series [6]. The figures for the Cp in the series with Homo sapiens [7] and in the series listed under Homo sapiens [14] were 64.41 ng/mL and 83.41 ng/mL, respectively.

For the origin of these results see ChEMBL document CHEMBL1255427, “Lack of a clinically relevant effect of an antacid on the pharmacokinetics of lersivirine” (Antimicrob Agents Chemother, 2010).
